According to US20160075682A1, “INHIBITORS OF NICOTINAMIDE PHOSPHORIBOSYLTRANSFERASE, COMPOSITIONS, PRODUCTS AND USES THEREOF” (UNIVERSITÀ DEGLI STUDI DEL PIEMONTE ORIENTALE "AMEDEO …, priority 2013, published 2016):

How the values were obtained:
NAMPT = target: T1, NAMPT (Homo sapiens, UniProt P43490); experiment: Direct inhibition of NAMPT enzymatic activity (Cyclex NAMPT colorimetric Assay Kit); type: biochemical; conditions: as assessed with a cycling assay
T1 construct: endogenous in cells; host or cells: SH-SY5Y and HeLa
Description: Determination of the direct activity of compounds on NAMPT was performed using a commercial kit, Cyclex NAMPT colorimetric Assay Kit.

[1] = Microsomal stability with human liver microsomes; type: in vitro ADME; conditions: 50 μM substrate, 1.0 mg/mL protein, 60 minutes at 37° C., pH 7.4
Description: Male Wistar rat liver microsomes (RLM), (protein concentration: 25 mg/ml determined using the Omura and Sato method, total P450: 0.64 nmol/mg protein) were used throughout this study and prepared using an internal protocol. The cryopreserved pooled human liver microsomes (HLM), (pooled mixed sex, ten individual donors, protein concentration: 20 mg/ml, total P450: 0.36 nmol/mg) were purchased from BD Gentest™ (Woburn, Mass.) and used throughout this study.
The standard incubation mixture (1 ml final volume), was carried out in a 50 mM TRIS (Tris[hydroxymethyl]aminomethane) buffer (pH 7.4) containing 10 μl of acetonitrile (1% of total volume), and 50 μM substrate compounds. After pre-equilibration of the mixture, an appropriate volume of RLM or HLM suspension was added to give a final protein concentration of 1.0 mg/mL. The mixture was shaken for 60 minutes at 37° C. Control incubations were carried out without microsomes. Each incubation was stopped by addition of 1 ml ice-cold acetonitrile, vortexed and centrifuged at 11,000 r.p.m. for 5 min. The supernatants were analysed by LC-DAD-UV and LC-ESI-MS systems to determine the metabolic stability (% substrate residue) and the structure of metabolites respectively (Table 1).
A Shimadzu HPLC system (Shimadzu, Kyoto, Japan), consisting of two LC-10AD Vp module pumps, an SLC-10A Vp system controller, an SIL-10AD Vp autosampler, and a DGU-14-A on-line degasser were used for the analysis. Chromatographic separation was performed on a Phenomenex Luna C18(2) 150×4.6 mm (5 μm) (Phenomenex srl, Castel Bolognese, Italy) as a stationary phase protected by a C18 SecurityGuard (Phenomenex srl, Castel Bolognese, Italy). The SPD-M10Avp photodiode array detector was used to detect the analytes. LC-Solution 1.24 software was used to process the chromatograms. Aliquots (20 μL) of supernatants obtained from incubations were injected onto the HPLC system and eluted with a mobile phase (flow rate 1.0 mL/min) consisting of a A: 0.5% formic acid solution, B: acetonitrile/methanol 8:2. A Thermo Finningan LCQ Deca XP plus system equipped with a quaternary pump, a Surveyor AS autosampler, a Surveyor photodiode array detector and a vacuum degasser was used for LC/MS analyses (Thermo Electron Corporation, Waltham, Mass.). All the chromatographic separations were performed on a Phenomenex Luna C18(2)150×2 mm (4 μm) (kept at a 35° C.) as a stationary phase protected by a C18 SecurityGuard (Phenomenex srl, Castel Bolognese, Italy). Aliquots (2.0 μl) of supernatants obtained from incubations were injected onto the system and eluted with a mobile phase (flow rate 0.2 ml/min) consisting of a A: 0.2% formic acid solution, B: acetonitrile/methanol 8:2. The eluate was injected into the electrospray ion source (ESI) and MS and MS^n spectra were acquired and processed using Xcalibur® software. The operating conditions on the ion trap mass spectrometer were as follows: Positive mode, spray voltage, 5.30 kV; source current, 80 μA; capillary temperature, 350° C.; capillary voltage, 21.00 V; tube lens offset, 15.00 V; multipole 1 offset, −5.75 V; multipole 2 offset, −9.00 V; sheath gas flow (N2), 55 Auxiliary Units.

T1 sequence (P43490 whole entry): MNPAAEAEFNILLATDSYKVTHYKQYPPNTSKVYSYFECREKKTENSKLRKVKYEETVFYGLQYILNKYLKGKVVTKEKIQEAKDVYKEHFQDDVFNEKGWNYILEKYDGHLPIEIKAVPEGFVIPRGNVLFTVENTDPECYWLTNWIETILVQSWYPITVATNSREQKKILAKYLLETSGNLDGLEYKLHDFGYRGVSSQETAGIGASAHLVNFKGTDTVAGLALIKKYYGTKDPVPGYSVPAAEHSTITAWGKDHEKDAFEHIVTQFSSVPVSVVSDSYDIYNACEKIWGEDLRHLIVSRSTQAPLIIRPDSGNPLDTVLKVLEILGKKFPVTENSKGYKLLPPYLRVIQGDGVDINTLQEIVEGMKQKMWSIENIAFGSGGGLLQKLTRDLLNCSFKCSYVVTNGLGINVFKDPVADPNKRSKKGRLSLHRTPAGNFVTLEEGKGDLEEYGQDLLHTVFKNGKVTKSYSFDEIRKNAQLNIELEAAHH

Row | Compound | inhibition of the enzymatic activity of NAMPT (NAMPT) | HLM stability % substrate residue (area peak) [1]
1 | c1ccc(-c2ccccc2OCCCCCCn2cc(-c3cccnc3)nn2)cc1 [3-(1-(6-([1,1′-biphenyl]-2-yloxy)hexyl)-1H-1,2,3-triazol-4-yl)pyridine] | able to inhibit | >96%
2 | O=C(NCCCCCCCn1cc(-c2cccnc2)nn1)c1ccccc1-c1ccccc1 [N-(7-(4-(pyridin-3-yl)-1H-1,2,3-triazol-1-yl)heptyl)-[1,1′-biphenyl]-2-carboxamide] | able to inhibit | >99%
